Assay results taken from the NIST ThermoML archive (doi:10.1007/s10765-010-0719-7).

Columns and labels:
[1] = refractive index (Na D-line) (dimensionless); settings: 303.15 K; 101.33 kPa; Liquid; Standard Abbe refractometry
[2] = 101 kPa, Liquid; for mass density: Pycnometric method
[3] = refractive index (Na D-line) (dimensionless); xn = mol fraction of the nth substance listed; settings: 303.15 K, 101 kPa, Liquid, Standard Abbe refractometry
[4] = xn = mol fraction of the nth substance listed; settings: 101 kPa, Liquid; for mass density: Pycnometric method

CCCCOCCO [2-butoxyethan-1-ol]
Settings | refractive index
[1] | 1.415

[2]
Settings | mass density [kg/m3] | speed of sound [m/s] | viscosity [mPa·s]
303.15 K | 892 | 1288.4 | 2.486
313.15 K | 884.2 | – | 1.979
323.15 K | 877.5 | – | 1.653

CCCCOCCO [2-butoxyethan-1-ol] + CC(C)CCO
[3]
Settings | refractive index
x2 = 0 | 1.415
x2 = 0.1297 | 1.4138
x2 = 0.251 | 1.4127
x2 = 0.3649 | 1.4115
x2 = 0.472 | 1.4104
x2 = 0.5728 | 1.4093
x2 = 0.6679 | 1.408
x2 = 0.7578 | 1.4069
x2 = 0.8428 | 1.4058
x2 = 0.9235 | 1.4047

[4]
Settings | mass density, 303.15 K [kg/m3] | mass density, 313.15 K [kg/m3] | mass density, 323.15 K [kg/m3] | speed of sound, 303.15 K [m/s] | viscosity, 303.15 K [mPa·s] | viscosity, 313.15 K [mPa·s] | viscosity, 323.15 K [mPa·s]
x2 = 0 | 892 | 884.2 | 877.5 | 1288.4 | 2.486 | 1.979 | 1.653
x2 = 0.1297 | 882.2 | 874.5 | 867.7 | 1279.8 | 2.483 | 1.969 | 1.623
x2 = 0.251 | 872.5 | 865.4 | 858.2 | 1270.3 | 2.496 | 1.967 | 1.629
x2 = 0.3649 | 863.1 | 856.1 | 848.8 | 1261.8 | 2.514 | 1.987 | 1.636
x2 = 0.472 | 853.9 | 847.2 | 839.8 | 1251.8 | 2.557 | 1.997 | 1.65
x2 = 0.5728 | 845 | 837.9 | 831 | 1242.3 | 2.594 | 2.028 | 1.673
x2 = 0.6679 | 838.6 | 829.5 | 822.3 | 1233.5 | 2.653 | 2.067 | 1.702
x2 = 0.7578 | 827.7 | 821 | 813.9 | 1224.2 | 2.748 | 2.121 | 1.737
x2 = 0.8428 | 819.3 | 812.5 | 805.7 | 1215.3 | 2.877 | 2.2 | 1.798
x2 = 0.9235 | 811.1 | 804.6 | 797.6 | 1206.4 | 3.058 | 2.303 | 1.851

CCOCCO [2-ethoxyethan-1-ol]
Settings | refractive index
[1] | 1.4065

[2]
Settings | mass density [kg/m3] | speed of sound [m/s] | viscosity [mPa·s]
303.15 K | 919.5 | 1301.5 | 1.623
313.15 K | 912 | – | 1.355
323.15 K | 903.8 | – | 1.143

CCOCCO [2-ethoxyethan-1-ol] + CC(C)CCO
[3]
Settings | refractive index
x2 = 0 | 1.4065
x2 = 0.102 | 1.4062
x2 = 0.2036 | 1.4059
x2 = 0.3047 | 1.4055
x2 = 0.4053 | 1.4052
x2 = 0.5055 | 1.4049
x2 = 0.6053 | 1.4046
x2 = 0.7046 | 1.4043
x2 = 0.8035 | 1.404
x2 = 0.902 | 1.4037

[4]
Settings | mass density, 303.15 K [kg/m3] | mass density, 313.15 K [kg/m3] | mass density, 323.15 K [kg/m3] | speed of sound, 303.15 K [m/s] | viscosity, 303.15 K [mPa·s] | viscosity, 313.15 K [mPa·s] | viscosity, 323.15 K [mPa·s]
x2 = 0 | 919.5 | 912 | 903.8 | 1301.5 | 1.623 | 1.355 | 1.143
x2 = 0.102 | 906.1 | 898.6 | 890.5 | 1292.4 | 1.688 | 1.385 | 1.169
x2 = 0.2036 | 892.9 | 885.6 | 877.7 | 1282.4 | 1.761 | 1.424 | 1.196
x2 = 0.3047 | 880.1 | 872.9 | 865.1 | 1272.7 | 1.812 | 1.469 | 1.222
x2 = 0.4053 | 867.7 | 860.5 | 853 | 1262.9 | 1.892 | 1.53 | 1.263
x2 = 0.5055 | 855.8 | 848.7 | 841.3 | 1251.2 | 1.994 | 1.604 | 1.31
x2 = 0.6053 | 844.3 | 837.3 | 830 | 1240.6 | 2.124 | 1.68 | 1.377
x2 = 0.7046 | 833.3 | 826.4 | 819.2 | 1229.3 | 2.301 | 1.812 | 1.46
x2 = 0.8035 | 822.8 | 815.9 | 808.8 | 1219.2 | 2.496 | 1.945 | 1.566
x2 = 0.902 | 812.6 | 805.8 | 799 | 1208.7 | 2.807 | 2.143 | 1.728

COCCO [2-methoxyethan-1-ol]
Settings | refractive index
[1] | 1.3983

[2]
Settings | mass density [kg/m3] | speed of sound [m/s] | viscosity [mPa·s]
303.15 K | 956.8 | 1324.3 | 1.55
313.15 K | 946.3 | – | 1.288
323.15 K | 937.8 | – | 1.082

COCCO [2-methoxyethan-1-ol] + CC(C)CCO
Settings | refractive index
[3], x2 = 0 | 1.3983

[4], x2 = 0
Settings | mass density [kg/m3] | speed of sound [m/s] | viscosity [mPa·s]
303.15 K | 956.8 | 1324.3 | 1.55
313.15 K | 946.3 | – | 1.288
323.15 K | 937.8 | – | 1.082

CC(C)CCO [3-methylbutan-1-ol]
Settings | refractive index
[1] | 1.4035

[2]
Settings | mass density [kg/m3] | speed of sound [m/s] | viscosity [mPa·s]
303.15 K | 803.1 | 1197.4 | 3.262
313.15 K | 796.4 | – | 2.441
323.15 K | 789.8 | – | 1.94

CC(C)CCO [3-methylbutan-1-ol] + CCCCOCCO
Settings | refractive index
[3], x1 = 1 | 1.4035

[4], x1 = 1
Settings | mass density [kg/m3] | speed of sound [m/s] | viscosity [mPa·s]
303.15 K | 803.1 | 1197.4 | 3.262
313.15 K | 796.4 | – | 2.441
323.15 K | 789.8 | – | 1.94

CC(C)CCO [3-methylbutan-1-ol] + CCOCCO
Settings | refractive index
[3], x1 = 1 | 1.4035

[4], x1 = 1
Settings | mass density [kg/m3] | speed of sound [m/s] | viscosity [mPa·s]
303.15 K | 803.1 | 1197.4 | 3.262
313.15 K | 796.4 | – | 2.441
323.15 K | 789.8 | – | 1.94

CC(C)CCO [3-methylbutan-1-ol] + COCCO
[3]
Settings | refractive index
x1 = 0.0875 | 1.3988
x1 = 0.1775 | 1.3993
x1 = 0.2701 | 1.3999
x1 = 0.3653 | 1.4004
x1 = 0.4633 | 1.4009
x1 = 0.5643 | 1.4014
x1 = 0.6683 | 1.402
x1 = 0.7754 | 1.4025
x1 = 0.886 | 1.403
x1 = 1 | 1.4035

[4]
Settings | mass density, 303.15 K [kg/m3] | mass density, 313.15 K [kg/m3] | mass density, 323.15 K [kg/m3] | speed of sound, 303.15 K [m/s] | viscosity, 303.15 K [mPa·s] | viscosity, 313.15 K [mPa·s] | viscosity, 323.15 K [mPa·s]
x1 = 0.0875 | 938.3 | 928.2 | 919.8 | 1312.1 | 1.578 | 1.312 | 1.111
x1 = 0.1775 | 920.5 | 910.8 | 902.8 | 1299.2 | 1.611 | 1.341 | 1.153
x1 = 0.2701 | 903.2 | 893.9 | 885.9 | 1287.4 | 1.652 | 1.376 | 1.169
x1 = 0.3653 | 886.7 | 877.6 | 870 | 1274.8 | 1.749 | 1.432 | 1.192
x1 = 0.4633 | 870.8 | 862.2 | 854.7 | 1261.2 | 1.82 | 1.482 | 1.224
x1 = 0.5643 | 855.8 | 847.6 | 840.1 | 1248.8 | 1.934 | 1.554 | 1.28
x1 = 0.6683 | 841.5 | 833.6 | 826.3 | 1235.7 | 2.119 | 1.667 | 1.355
x1 = 0.7754 | 827.8 | 820.5 | 813.2 | 1223.3 | 2.354 | 1.834 | 1.481
x1 = 0.886 | 815.1 | 808.1 | 801.1 | 1210.5 | 2.715 | 2.06 | 1.671
x1 = 1 | 803.1 | 796.4 | 789.8 | 1197.4 | 3.262 | 2.441 | 1.94
